The values that follow come from US5942514A, “Quinazoline derivatives” (Zeneca Limited, priority 1995, dated 1999).

pIC50: −log10 of the molar value.

Test [1] addresses T1, EGF receptor tyrosine kinase (Homo sapiens, UniProt P00533).
T1 construct: Receptor tyrosine kinase was obtained in partially purified form from A431 cells; endogenous in cells; host or cells: A431 cells (human vulval carcinoma), Triton X-100 solubilised membrane fraction
Nature of the test: In vitro assay: ability of a test compound to inhibit the enzyme EGF receptor tyrosine kinase (Test (a)). The note with it: EGF receptor tyrosine kinase from A431 cells; approximate values. It counts as biochemical. How it is done:
(a) An in vitro assay which determines the ability of a test compound to inhibit the enzyme EGF receptor tyrosine kinase.
A-431 cells were grown to confluence using Dulbecco's modified Eagle's medium (DMEM) containing 5% fetal calf serum (FCS). […] The homogenate was centrifuged at 400 g for 10 minutes at 0-4° C. The supernatant was centrifuged at 25,000 g for 30 minutes at 0-4° C. The pelleted material was suspended in 30 mM Hepes buffer at pH 7.4 containing 5% glycerol, 4 mM benzamidine and 1% Triton X-100, stirred for 1 hour at 0-4° C., and recentrifuged at 100,000 g for 1 hour at 0-4° C. The supernatant, containing solubilised receptor tyrosine kinase, was stored in liquid nitrogen.
There was thus obtained the test enzyme solution.
Equal volumes of this solution and a solution of epidermal growth factor (EGF; 20 μg/ml) were mixed.
[γ-^32 P]ATP (3000 Ci/mM, 250 μCi) was diluted to a volume of 2 ml by the addition of a solution of ATP (100 μM) in distilled water. An equal volume of a 4 mg/ml solution of the peptide […]in a mixture of 40 mM Hepes buffer at pH 7.4, 0.1% Triton X-100 and 10% glycerol was added.
The test compound/EGF mixture solution (5 μl) was added to the test enzyme solution (10 μl) and the mixture was incubated at 0-4° C. for 30 minutes. The ATP/peptide mixture (10 μl) was added and the mixture was incubated at 25° C. for 10 minutes. The phosphorylation reaction was terminated by the addition of 5% trichloroacetic acid (40 μl) and bovine serum albumin (BSA; 1 mg/ml, 5 μl). The mixture was allowed to stand at 4° C. for 30 minutes and then centrifuged. An aliquot (40 μl) of the supernatant was placed onto a strip of Whatman p 81 phosphocellulose paper. The strip was washed in 75 mM phosphoric acid (4×10 ml) and blotted dry. Radioactivity present in the filter paper was measured using a liquid scintillation counter (Sequence A). The reaction sequence was repeated in the absence of the EGF (Sequence B) and again in the absence of the test compound (Sequence C).
Receptor tyrosine kinase inhibition was calculated as follows: [formula]

In the next test the test system is KB cells. Nature of the test: In vitro assay: inhibition of the EGF-stimulated growth of the human naso-pharyngeal cancer cell line KB (Test (b)). In kind it is cell-based. To be noted: 72 h, EGF 10 ng/ml, 3 days, MTT, approximate values. The procedure: (b) An in vitro assay which determines the ability of a test compound to inhibit the EGF-stimulated growth of the human naso-pharyngeal cancer cell line KB.
KB cells were seeded into wells at a density of 1×10^4 -1.5×10^4 cells per well and grown for 24 hours in DMEM supplemented with 5% FCS (charcoal-stripped). Cell growth was determined after incubation for 3 days by the extent of metabolism of MTT tetrazolium dye to furnish a bluish colour. Cell growth was then determined in the presence of EGF (10 ng/ml) or in the presence of EGF (10 ng/ml) and a test compound at a range of concentrations. An IC50 value could then be calculated.

T1 sequence (P00533 25-1210): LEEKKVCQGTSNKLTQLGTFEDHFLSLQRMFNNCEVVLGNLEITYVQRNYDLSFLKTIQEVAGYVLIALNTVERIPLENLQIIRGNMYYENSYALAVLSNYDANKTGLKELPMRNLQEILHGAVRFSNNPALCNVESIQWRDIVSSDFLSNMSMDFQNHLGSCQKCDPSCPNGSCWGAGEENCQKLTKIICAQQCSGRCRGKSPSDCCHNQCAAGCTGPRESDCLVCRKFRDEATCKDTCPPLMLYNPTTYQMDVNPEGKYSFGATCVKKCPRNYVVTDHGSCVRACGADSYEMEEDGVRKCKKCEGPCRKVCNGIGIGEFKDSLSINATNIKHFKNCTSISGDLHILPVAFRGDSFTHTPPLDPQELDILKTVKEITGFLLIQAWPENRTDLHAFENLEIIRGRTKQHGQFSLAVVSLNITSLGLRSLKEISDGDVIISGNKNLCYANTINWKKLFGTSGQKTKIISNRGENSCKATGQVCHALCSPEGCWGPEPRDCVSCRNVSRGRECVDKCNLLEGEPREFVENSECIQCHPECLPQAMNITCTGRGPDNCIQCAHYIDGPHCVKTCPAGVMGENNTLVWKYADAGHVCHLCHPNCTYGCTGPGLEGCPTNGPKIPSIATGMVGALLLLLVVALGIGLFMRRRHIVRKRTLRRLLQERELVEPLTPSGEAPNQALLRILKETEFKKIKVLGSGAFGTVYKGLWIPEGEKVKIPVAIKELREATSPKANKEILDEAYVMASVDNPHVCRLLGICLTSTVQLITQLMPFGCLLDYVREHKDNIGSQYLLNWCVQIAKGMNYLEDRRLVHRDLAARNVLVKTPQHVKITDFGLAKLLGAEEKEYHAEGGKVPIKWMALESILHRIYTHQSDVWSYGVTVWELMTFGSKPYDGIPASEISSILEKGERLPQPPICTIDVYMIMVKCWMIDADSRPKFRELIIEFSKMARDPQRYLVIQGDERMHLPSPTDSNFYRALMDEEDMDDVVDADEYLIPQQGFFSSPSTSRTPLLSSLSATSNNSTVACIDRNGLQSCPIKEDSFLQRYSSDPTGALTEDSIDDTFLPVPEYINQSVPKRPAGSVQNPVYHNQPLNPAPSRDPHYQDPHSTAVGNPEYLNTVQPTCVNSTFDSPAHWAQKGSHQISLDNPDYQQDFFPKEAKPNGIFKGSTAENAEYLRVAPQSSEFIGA

As for `COCCCNc1ccc2ncnc(Nc3ccc(F)c(Cl)c3)c2c1` [Example 1, 4-(3'-chloro-4'-fluoroanilino)-6-(3-methoxypropylamino)quinazoline], the pIC50 (in general, the IC50 on a negative log10 scale, so that one unit is a factor of ten) is 7.30 in test [1] and 7.00 in the test with KB cells.

`COCCNc1ccc2ncnc(Nc3ccc(F)c(F)c3)c2c1` [Example 2, 4-(3',4'-difluoroanilino)-6-(2-methoxyethylamino)quinazoline]: the values for the pIC50 (in test [1]; with KB cells) were 6.52 and 6.30, respectively.

Consider `COCCNc1ccc2ncnc(Nc3ccc(F)c(Cl)c3)c2c1` [Example 3, 4-(3'-chloro-4'-fluoroanilino)-6-(2-methoxyethylamino)quinazoline], for which the pIC50 was 7.40 in test [1] and 6.52 with KB cells.

On to `COCCNc1ccc2ncnc(Nc3ccc(F)cc3F)c2c1` [Example 4, 4-(2',4'-difluoroanilino)-6-(2-methoxyethylamino)quinazoline], for which the figures for the pIC50 (in test [1]; in the test on KB cells) were 6.52 and 5.96, respectively.
